The values below come from ChEMBL document CHEMBL1139447, “Discovery of novel PTP1b inhibitors” (Bioorg Med Chem Lett, 2004).

SMILES strings stand for the structures. Bounds are passed on as bounds.

This experiment is described as follows: Compound was tested for inhibition of Protein tyrosine phosphatase (PTP1B).
Take `O=Cc1ccccn1` [2-PYRIDINECARBOXALDEHYDE]: the IC50 (as a rule, the midpoint of a concentration-inhibition curve) was more than 300 µM and binding was characterised by a dissociation constant (Kd) of 100 µM.
With `O=CCCc1ccccc1` [DIHYDROCINNAMALDEHYDE], the IC50 is more than 300 µM and binding was put at a Kd of 150 µM.
The like results for `O=c1c(O)c(-c2ccccc2)c1=O` were, in that order, 60 µM and 25 µM.
